Test results reported in US11174251B2, “Compositions and methods for inhibition of the JAK pathway” (Rigel Pharmaceuticals, Inc., priority 2010, dated 2021).
Counter-ions that a name gives are not always drawn.

Molecular target: T1, JAK3 (Homo sapiens, UniProt P52333)
T1 construct: The Ramos B-cell line was acquired from ATCC (ATCC Catalog No. CRL-1596); host or cells: Ramos B-cell line (human)
T1 sequence (P52333 1-1124): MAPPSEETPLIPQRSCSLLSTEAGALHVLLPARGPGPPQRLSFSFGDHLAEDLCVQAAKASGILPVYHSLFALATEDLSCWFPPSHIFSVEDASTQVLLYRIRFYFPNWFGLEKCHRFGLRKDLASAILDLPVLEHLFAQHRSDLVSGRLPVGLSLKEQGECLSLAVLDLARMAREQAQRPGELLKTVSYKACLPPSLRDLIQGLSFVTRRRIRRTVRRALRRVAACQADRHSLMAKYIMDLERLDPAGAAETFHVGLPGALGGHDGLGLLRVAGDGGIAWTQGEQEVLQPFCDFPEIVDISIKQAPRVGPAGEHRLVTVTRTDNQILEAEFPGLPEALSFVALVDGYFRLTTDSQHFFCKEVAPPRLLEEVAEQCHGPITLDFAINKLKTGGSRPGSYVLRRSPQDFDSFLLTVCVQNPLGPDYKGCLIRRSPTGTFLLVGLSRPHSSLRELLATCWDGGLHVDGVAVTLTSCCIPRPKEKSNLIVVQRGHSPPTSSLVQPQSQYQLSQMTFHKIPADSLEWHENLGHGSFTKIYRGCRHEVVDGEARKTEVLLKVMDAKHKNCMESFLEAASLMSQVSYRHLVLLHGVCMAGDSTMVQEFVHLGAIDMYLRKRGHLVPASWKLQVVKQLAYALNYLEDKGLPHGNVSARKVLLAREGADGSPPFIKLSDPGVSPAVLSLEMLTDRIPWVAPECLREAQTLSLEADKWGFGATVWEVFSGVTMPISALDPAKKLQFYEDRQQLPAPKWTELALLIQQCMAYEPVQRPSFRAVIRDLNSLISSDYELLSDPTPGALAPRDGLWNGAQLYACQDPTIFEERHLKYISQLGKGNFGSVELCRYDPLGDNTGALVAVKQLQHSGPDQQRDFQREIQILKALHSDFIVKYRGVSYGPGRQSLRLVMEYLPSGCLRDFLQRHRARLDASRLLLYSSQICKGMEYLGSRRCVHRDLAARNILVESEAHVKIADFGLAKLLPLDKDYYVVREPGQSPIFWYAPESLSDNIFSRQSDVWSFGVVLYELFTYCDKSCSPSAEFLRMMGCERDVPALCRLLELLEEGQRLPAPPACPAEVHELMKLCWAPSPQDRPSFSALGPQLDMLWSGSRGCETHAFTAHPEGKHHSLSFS
Experiment: Assay for CD23 expression on Ramos B-cells stimulated by IL-4 (Table IV: ability to inhibit JAK3 activity)
Format: cell-based
Conditions: tested under conditions described in Example 3 (so in the source)
How it was run: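 IL-4-induced CD23 surface expression on human Ramos B cells, detected by flow cytometry after 20–24 h stimulation (IL-4 final 50 units/mL). Compound or DMSO added 1 h beforehand at 37 °C; cells kept in RPMI with 5% serum.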

Row | IC50 [nM] | SMILES
1 | < 500 | O=C1CCCc2cc(Nc3ncc(F)c(Nc4ccc5oc(=O)[nH]c5c4)n3)ccc2N1 [II-27, 7-(4-(2,3-dihydro-2-oxobenzo[d]oxazol-5-ylamino)-5-fluoropyrimidin-2-ylamino)-4,5-dihydro-1H-benzo[b]azepin-2(3H)-one trifluoroacetate salt]
2 | < 500 | CN1C(=O)CCCc2cc(Nc3ncc(F)c(Nc4ccc5oc(=O)[nH]c5c4)n3)ccc21 [II-28, 7-(4-(2,3-dihydro-2-oxobenzo[d]oxazol-5-ylamino)-5-fluoropyrimidin-2-ylamino)-4,5-dihydro-1-methyl-1H-benzo[b]azepin-2(3H)-one trifluoroacetate salt]
